{
  "source": "patent US12670969B2",
  "about": "“Network medicine framework for identifying drug repurposing opportunities” (Northeastern University, priority 2020, dated 2026)",
  "key": {"SARS-CoV-2": {"tested_on": "SARS-CoV-2", "details": "positive control used at 5 μM; cited from earlier work"}, "[1]": {"tested_on": "SARS-CoV-2 strain USA-WA1/2020", "assay_type": "cell-based", "details": "VeroE6 cells, drugs from 8 μM down to 8 nM"}, "Huh7 cells": {"tested_on": "Huh7 cells", "details": "in high concentration"}, "Caco-2": {"tested_on": "Caco-2", "details": "Caco-2 cells; cited from earlier work"}},
  "data": [
    {"molecule": "CC(C)C[C@H](NC(=O)[C@H]1O[C@@H]1C(=O)O)C(=O)NCCCCN=C(N)N", "note": "[E-64]", "values": [
      {"measurement": "inhibition of SARS-CoV-2 infection, previously reported", "setting": "SARS-CoV-2", "value": "inhibit SARS-CoV-2 infection"}
    ]},
    {"molecule": "CC(C)c1nc(CN(C)C(=O)N[C@H](C(=O)N[C@@H](Cc2ccccc2)C[C@H](O)[C@H](Cc2ccccc2)NC(=O)OCc2cncs2)C(C)C)cs1", "note": "[Ritonavir]", "values": [
      {"measurement": "outcome in VeroE6 screen, in words", "setting": "[1]", "value": "no effect"}
    ]},
    {"molecule": "CN(C)CCC=C1c2ccccc2CCc2ccccc21", "note": "[amitriptyline]", "values": [
      {"measurement": "outcome in VeroE6 screen, in words", "setting": "[1]", "value": "S&W"}
    ]},
    {"molecule": "CC(=O)OC[C@H]1O[C@@H]([S-])[C@H](OC(C)=O)[C@@H](OC(C)=O)[C@@H]1OC(C)=O.CCP(CC)CC.[Au+]", "note": "[auranofin]", "values": [
      {"measurement": "cytotoxicity in Huh7 cells (reduced nuclei count)", "setting": "Huh7 cells", "value": "tracing cytotoxicity"}
    ]},
    {"molecule": "CN1CCCC(n2nc(Cc3ccc(Cl)cc3)c3ccccc3c2=O)CC1", "note": "(stereo not drawn) [azelastine]", "values": [
      {"measurement": "cytotoxicity in Huh7 cells (reduced nuclei count)", "setting": "Huh7 cells", "value": "tracing cytotoxicity"}
    ]},
    {"molecule": "CCN(CC)CCCC(C)Nc1ccnc2cc(Cl)ccc12", "note": "(stereo not drawn) [chloroquine]", "values": [
      {"measurement": "outcome in VeroE6 screen, in words", "setting": "[1]", "value": "positive outcomes"}
    ]},
    {"molecule": "CCN(CCO)CCCC(C)Nc1ccnc2cc(Cl)ccc12", "note": "(stereo not drawn) [hydroxychloroquine]", "values": [
      {"measurement": "outcome in VeroE6 screen, in words", "setting": "[1]", "value": "positive outcomes"}
    ]},
    {"molecule": "CCOC(=O)N1CCC(=C2c3ccc(Cl)cc3CCc3cccnc32)CC1", "note": "[loratadine]", "values": [
      {"measurement": "drug-response classification (S, W, C, N) of effect on SARS-CoV-2 infection", "setting": "[1]; MOI about 0.2", "value": "N"},
      {"measurement": "viral activity in human cell line Caco-2", "setting": "Caco-2", "value": "inhibited viral activity"}
    ]}
  ]
}
